Measurements reported in US9751842B2, “Phthalazine derivatives” (Merck Patent GmbH, priority 2013, dated 2017).

Tests used:
[1] = tested on: Tankyrase (Axin2 level in DLD1 cells); test: Cellular inhibition of Tankyrase, Axin2 Luminex assay in DLD1 cells; format: cell-based; conditions: Homo sapiens, DLD-1, 24 hours, Axin2 level increase, read-out: IC50 Cell assay
Experimental: Measurement of Cellular Inhibition of Tankyrase
Since Tankyrases have been described to modulate cellular level of Axin2 (Huang et al., 2009; Nature) the increase of Axin2 level is used as read-out for determination of cellular inhibition of Tankyrases in a Luminex based assay.
Cells of the colon carcinoma cell line DLD1 are plated in 96 well plates with 1.5×10^4 cells per well. Next day, cells are treated with a serial dilution of test compound in seven steps as triplicates with a final DMSO concentration of 0.3%. After 24 hours, cells are lysed in lysis buffer (20 mM Tris/HCl pH 8.0, 150 mM NaCl, 1% NP40, 10% Glycerol) and lysates are cleared by centrifugation through a 96 well filter plate (0.65 μm). Axin2 protein is isolated from cell lysates by incubation with a monoclonal anti-Axin2 antibody (R&D Systems #MAB6078) that is bound to fluorescent carboxybeads. Then, bound Axin2 is specifically detected with a polyclonal anti-Axin2 antibody (Cell Signaling #2151) and an appropriate PE-fluorescent secondary antibody. The amount of isolated Axin2 protein is determined in a Luminex^200 machine (Luminex Corporation) according to the manufacturer's instruction by counting 100 events per well. Inhibition of Tankyrase by test compounds results in higher levels of Axin2 which directly correlates with an increase of detectable fluorescence. As controls cells are treated with solvent alone (neutral control) and with a Tankyrase reference inhibitor IWR-2 (3E-06 M) which refers as control for maximum increase of Axin2. For analysis, the obtained data are normalized against the untreated solvent control and fitted for determination of the EC50 values using the Assay Explorer software (Accelrys).

His-tagged Parp-1 = target: T1, His-tagged Parp-1 (Homo sapiens, UniProt P09874); test: PARP-1 autoparsylation HTRF assay; format: biochemical; conditions: 150 min at 23° C
T1 construct: purchased Enzo Life Sciences GmbH, Lörrach, Germany
Excerpt: Description of the PARP1 Assay
Biochemical Activity Testing of PARP-1: Autoparsylation Assay
The autoparsylation assay is run in two steps: the enzymatic reaction in which His-tagged Parp-1 transfers biotinylated ADP-ribose/ADP-ribose to itself from biotinylated NAD/NAD as co-substrate and the detection reaction where a time resolved FRET between cryptate labelled anti-His antibody bound to the His tag of the enzyme and Xlent® labelled-streptavidin bound the biotin parsylation residue is analysed. The autoparsylation activity is detectable directly via the increase in HTRF signal.
The autoparsylation assay is performed as 384-well HTRF® (Cisbio, Codolet, France) assay format in Greiner low volume nb 384-well microtiter plates. 35 nM His-tagged Parp-1 (human, recombinant, Enzo Life Sciences GmbH, Lörrach, Germany) and a mixture of 125 nM bio-NAD (Biolog, Life science Inst., Bremen, Germany) and 800 nM NAD as co-substrate are incubated in a total volume of 6 μl (100 mM Tris/HCl, 4 mM Mg-chloride, 0.01% IGEPAL® CA630, 1 mM DTT, 0.5% DMSO, pH 8, 13 ng/μl activated DNA (BPS Bioscience, San Diego, US)) in the absence or presence of the test compound (10 dilution concentrations) for 150 min at 23° C. The reaction is stopped by the addition of 4 μl of the Stop/detection solution (70 nM SA-Xlent® (Cisbio, Codolet, France), 2.5 nM Anti-His-K® (Eu-labelled anti-His, Cisbio, Codolet, France) in 50 mM HEPES, 400 mM KF, 0.1% BSA, 20 mM EDTA, pH 7.0). After 1 h incubation at room temperature the HTRF is measured with an Envision multimode reader (Perkin Elmer LAS Germany GmbH) at excitation wavelength 340 nm (laser mode) and emission wavelengths 615 nm and 665 nm. The ratio of the emission signals is determined. The full value used is the inhibitor-free reaction. The pharmacological zero value used is Olaparib (LClabs, Woburn, US) in a final concentration of 1 μM. The inhibitory values (IC50) are determined using either the program Symyx Assay Explorer® or Condosseo® from GeneData.

T1 sequence (P09874 whole entry): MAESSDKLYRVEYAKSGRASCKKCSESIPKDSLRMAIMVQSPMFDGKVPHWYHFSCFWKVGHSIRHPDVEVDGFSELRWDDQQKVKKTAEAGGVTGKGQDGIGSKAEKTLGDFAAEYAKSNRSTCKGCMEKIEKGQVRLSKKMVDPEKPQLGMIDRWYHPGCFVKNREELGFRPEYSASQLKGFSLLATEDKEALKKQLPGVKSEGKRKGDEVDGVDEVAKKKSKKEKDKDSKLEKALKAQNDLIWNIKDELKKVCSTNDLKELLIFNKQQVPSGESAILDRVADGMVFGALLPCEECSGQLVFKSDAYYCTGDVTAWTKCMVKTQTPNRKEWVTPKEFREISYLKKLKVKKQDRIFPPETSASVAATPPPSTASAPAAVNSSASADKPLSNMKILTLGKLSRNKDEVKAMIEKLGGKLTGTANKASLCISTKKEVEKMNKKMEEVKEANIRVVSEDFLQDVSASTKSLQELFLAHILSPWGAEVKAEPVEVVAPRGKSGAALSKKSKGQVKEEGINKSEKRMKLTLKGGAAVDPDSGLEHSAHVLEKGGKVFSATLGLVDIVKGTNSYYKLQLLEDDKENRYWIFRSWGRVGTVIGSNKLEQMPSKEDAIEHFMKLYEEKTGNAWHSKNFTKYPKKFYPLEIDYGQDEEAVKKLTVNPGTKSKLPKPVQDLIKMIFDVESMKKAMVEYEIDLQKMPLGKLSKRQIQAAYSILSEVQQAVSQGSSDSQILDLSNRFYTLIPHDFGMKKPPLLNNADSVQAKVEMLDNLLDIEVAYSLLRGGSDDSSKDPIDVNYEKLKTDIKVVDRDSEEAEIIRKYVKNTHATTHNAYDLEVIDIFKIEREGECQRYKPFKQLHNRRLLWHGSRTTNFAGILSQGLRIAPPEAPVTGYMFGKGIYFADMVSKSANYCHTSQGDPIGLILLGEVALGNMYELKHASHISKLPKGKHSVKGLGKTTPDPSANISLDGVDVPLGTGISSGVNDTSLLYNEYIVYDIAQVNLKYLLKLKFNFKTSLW

Row | IC50 [1] [µM] | IC50 (His-tagged Parp-1) [µM] | Compound
1 | 3 to 50 | 3 to 50 | O=C(Cc1ccccc1)Nc1nncc2ccccc12 [Compound A1, 2-phenyl-N-phthalazin-1-yl-acetamide]
2 | 3 to 50 | 3 to 50 | COc1cccc(CC(=O)Nc2nncc3ccccc23)c1 [Compound A2, 2-(3-methoxyphenyl)-N-phthalazin-1-yl-acetamide]
3 | 3 to 50 | 3 to 50 | COc1ccc(CC(=O)Nc2nncc3ccccc23)cc1 [Compound A3, 2-(4-methoxyphenyl)-N-phthalazin-1-yl-acetamide]
4 | 3 to 50 | 3 to 50 | CCOc1ccc(CC(=O)Nc2nncc3ccccc23)cc1 [Compound A4, 2-(4-ethoxyphenyl)-N-phthalazin-1-yl-acetamide]
5 | 3 to 50 | 3 to 50 | O=C(CCC1CCCC1)Nc1nncc2ccccc12 [Compound A15, 3-cyclopentyl-N-phthalazin-1-yl-propionamide]
6 | 3 to 50 | 3 to 50 | O=C(CCc1ccccc1Cl)Nc1nncc2ccccc12 [Compound A16, 3-(2-chloro-phenyl)-N-phthalazin-1-yl-propionamide]
7 | 3 to 50 | 0.3 to 3 | Cc1cccc2cnnc(NC(=O)Cc3ccccc3)c12 [Compound A18, N-(8-methyl-phthalazin-1-yl)-2-phenyl-acetamide]
8 | 3 to 50 | 0.3 to 3 | COc1ccc(CC(=O)Nc2nncc3cccc(C)c23)cc1 [Compound A20, 2-(4-methoxy-phenyl)-N-(8-methyl-phthalazin-1-yl)-acetamide]
